Usually EC50 stands for the midpoint of the concentration-response curve.

For data set [1], the target named is T1, RXR-VDR heterodimer (Gal4-RXR-DEF and VP16-VDR-LBD) (Homo sapiens, UniProt P11473).
T1 construct: Add the Gal4-RXR-DEF and VP16-VDR-LBD; expressed in transfected cells; host or cells: SaOs-2 cells
T1 sequence (P11473 127-423 limits assumed): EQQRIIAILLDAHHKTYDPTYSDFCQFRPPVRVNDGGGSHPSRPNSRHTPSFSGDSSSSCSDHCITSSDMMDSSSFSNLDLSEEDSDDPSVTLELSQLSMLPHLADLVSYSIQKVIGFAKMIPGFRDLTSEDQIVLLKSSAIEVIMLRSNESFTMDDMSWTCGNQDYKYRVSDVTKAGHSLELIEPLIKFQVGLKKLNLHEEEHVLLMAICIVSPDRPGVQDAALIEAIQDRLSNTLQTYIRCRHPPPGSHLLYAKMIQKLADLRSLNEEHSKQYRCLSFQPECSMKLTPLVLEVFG
T1 sequence (P19793 201-462 partner limits assumed): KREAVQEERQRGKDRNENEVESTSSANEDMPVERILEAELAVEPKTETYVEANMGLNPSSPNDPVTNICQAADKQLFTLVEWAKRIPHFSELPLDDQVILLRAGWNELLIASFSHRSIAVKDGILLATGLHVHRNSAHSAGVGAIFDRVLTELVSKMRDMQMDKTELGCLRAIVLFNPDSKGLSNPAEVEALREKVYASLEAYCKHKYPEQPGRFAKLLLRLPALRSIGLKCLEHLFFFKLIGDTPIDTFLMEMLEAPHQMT
Description: RXR-VDR heterodimerization assay (SaOS-2 cells). Type of data set: cell-based. The following applies: luciferase reporter pFR-LUC. The text has this: 1. The RXR-VDR Heterodimer Assay:
This assay provides the VDR activity of a test compound.
This is an in vitro efficacy assay for psoriasis, abscess and adhesion. Psoriasis involves both keratinocytes and immune cells. IL-10 is a unique cytokine because it is anti-inflammatory and immunosuppressive. This assay tells us whether a VDRM is able to function as an agonist in PBMCs (primary blood mononuclear cells) or not. […] 7. Other Compound Assay Standards An alternative measure of the efficacy of compounds of the invention for treatment of osteoporosis is a numerical ratio calculated as follows: • Dose Threshold needed to induce hypercalcemia • divided by • Dose Threshold needed for bone efficacy An alternative measure of the efficacy of compounds of the invention for treatment of psoriasis is a numerical ratio calculated as follows: • Dose Threshold needed to induce hypercalcemia • divided by • Dose Threshold needed to induce keratinocyte proliferation For the above ratios, Dose Thresholds are determined from dose response curve data. 8. The CaT1 (Calcium Transport Protein 1) Assay The CaT1 Assay is an indicator for the undesirable condition of hypercalcemia. […] Preferred assay results are greater than 1000 nM. Details of the Assay Methods: (1) Materials and Method for RXR-VDR Heterodimerization Assay: Transfection Method:
Grow SaOs-2 cells in T-152 cm^2 culture flasks in growth media.
Keep the density at 5-6×10^5 cells/ml
Passage cells 1:3 twice a week
Resuspend cells in plating media and transfer into growth media.
Transfection/Treatment Media:
D-MEM Low Glucose Without Phenol Red only
T-152 cm^2 culture flask:
Use well plate to plate cells
Use Deep well plate sterile to make up treatment media.
Luciferase Assay Reagent:
Use Steady-Glo Luciferase Reagent from Promega (Cat #E2550) Consists of:
a. E2533 Assay Substrate, lyophilized product and
Aspirate media from culture flask, rinse cells with HBSS and aspirate.
Add trypsin and incubate. […]
Read the plates after drug treatment […]
Count each well using a Luminescence counter, Top Count NXT by Packard […]
In general terms: Reporter assays use an easily measured gene product as a stand-in for the process of interest.

A short description of data set [2]: Mouse hypercalcemia assay. The format is in vivo. As to conditions: female DBF mice, oral gavage for 6 days, serum ionized calcium 6 hours after last dosing. The text has this: 4. The Mouse Hypercalcemia Assay
(4) Materials and Method for the Mouse Hypercalcemia Assay: […]

The subject of data set [3] is rat osteocalcin promoter. In words: OCN (osteocalcin) promoter assay. The following applies: RG-15 (ROS 17/2.8) cells, 48 hr treatment, luciferase. The format is cell-based. How it is done: 3. The OCN (Osteocalcin) Promoter Assay
The OCN Promoter Assay is an indicator and marker for osteoporosis. Desired assay results are EC50 less than or equal to […]. Preferred assay results are less than […].
(3) Materials and Method for the OCN Promoter Assay:
The activation of osteocalcin by VDR ligands was evaluated in a rat osteoblast-like cell line RG-15 (ROS 17/2.8) stably expressing rat osteocalcin promoter fused with luciferase reporter gene. The stable cell lines were established as reported before (Activation of Osteocalcin Transcription involves interaction of protein kinase A- and Protein kinase C-dependent pathways. Boguslawski, G., Hale, L. V., Yu, X.-P., Miles, R. R., Onyia, J. E., Santerre R. F., Chandrasekhar, S. J. Biol. Chem. 275, 999-1006, 2000). Confluent RG-15 cells maintained in DMEM/F-12 medium (3:1) containing 5% FBS, 300 µg/ml G418 and at 37° C. under 5% CO2/95% air atmosphere were trypsinized (0.25% trypsin) and plated into white opaque 96-well cell culture plates (25000 cells/well). After 24 hr, cells (in DMEM/F-12 medium+2% FBS) were treated with various concentrations of compounds, dissolved in DMSO. The final DMSO concentration remained at 0.01% (v/v). After 48 hr treatment, the medium was removed, cells were lysed with 50 µl of lysis buffer (From Luciferase reporter assay system, Roche Diagnostics, Indianapolis, Ind.) and assayed for luciferase activity using the Luciferase Reporter Gene Assay kit from Boehringer Mannheim as per manufacturer's specifications.

Where “and” joins values, the source holds several entries; their conditions need not be identical. Identical values can stand only once.

For `CCC(O)(CC)COc1ccc(C(CC)(CC)c2ccc(C(=O)NCC(=O)O)c(C)c2)cc1C` [Ex. 3, (4-{1-ethyl-1-[4-(2-ethyl-2-hydroxy-butoxy)-3-methyl-phenyl]-propyl}-2-methyl-benzoylamino)-acetic acid], the EC50 in data set [1] was 301 nM and 149 nM; in data set [3] it was 19.7 nM; in data set [3] (Rattus norvegicus, 48 h), 16.8 nM. Moreover, the “Mouse Hypercal” value in data set [2] is 1000 µg/kg/day.

In the case of `CCC(CC)(c1ccc(OCC(O)(C(C)C)C(C)C)c(C)c1)c1ccc(C(=O)NCC(=O)O)c(C)c1` [Ex. 4, (4-{1-Ethyl-1-[4-(2-hydroxy-2-isopropyl-3-methyl-butoxy)-3-methyl-phenyl]-propyl}-2-methyl-benzoylamino)-acetic acid], the EC50 in data set [1] is 257 nM and 127 nM; in data set [3] it was 27.7 nM; in data set [3] (Rattus norvegicus, 48 h), 21 nM. The “Mouse Hypercal” value in data set [2] is 73000 µg/kg/day.

Source of the values: patent US7595345B2, “Vitamin D receptor modulators” (Eli Lilly and Company, priority 2003, dated 2009).
